In patent US12312378B2, “Glucosamine derivatives for the prevention or treatment of joint disorders” (RISEN (SUZHOU) PHARMA TECH CO., LTD., priority 2017, dated 2025):
Entries after “also recorded” stand apart in the source; their conditions may differ. Marks after values point to notes of the source that are not given here.

Experiments:
MIA-induced OA rat model = test: Monosodium iodoacetate-induced osteoarthritis (MIA) model in rat knee; assay type: in vivo
Experimental: Osteoarthritis was induced by intra-articular (i.a.) injection of MIA solution in the rat knee joint as follows: Briefly, rats were anesthetized with isoflurane and given a single i.a. administration of 2 mg of MIA dissolved in saline through the intrapatellar ligament of the right knee. MIA was administered in a volume of 50 μL. Basal readings were established using a group of control rats injected with 10% ethanol in water. Rats were randomized by initial body weight to groups of 6 or 7. After MIA injection, the MIA groups began treatment with either vehicle, or a test compound at a preset dose regime for a period of 28 days. Clinical observations were recorded, including body weight, joint swelling, and weight bearing, on pre-induction day (day 0), day 3, 5, 7, 14, 21 and/or 28. At the end of the study, the animals were euthanized by CO2 and sacrificed. Joint samples including the tibia and femur were sectioned in the coronal plane and stained using both H&E and Safranin-O. Knee joints were examined and scored for cartilage degeneration, the presence of osteophytes, the amount and extent of calcified cartilage and subchondral bone damage, and the amount of synovial membrane inflammation using the Osteoarthritis Research Society International (OARSI) scoring system put forth in 2010 (Kraus, V. B. et al., Osteoarthritis Cartilage, 2010, Suppl 3:S35-52).
Studies of compound 16 in the MIA model were conducted as described above.

[1] = tested on: MMT-induced model of osteoarthritis; test: Medial meniscus transection (MMT) model in rats; assay type: in vivo, rat; details: for Weight bearing (right paw, %), mean: G2, gavage 4 times every day
From the text: In the rat MMT model, the unilateral knee (right knee) was cleaned and prepped for surgery. An incision was made over the medial aspect of the femoro-tibial joint. The medial collateral ligament was exposed via blunt dissection and transected to reflect the meniscus toward the femur. A full thickness cut was made through the meniscus at its narrowest point. The joint space was returned to normal, and the skin was closed and the animal allowed to recover. For the present study, at second day post MMT induction animals, G1 and G2 animals were treatment with vehicle and test compound 16 respectively. Animals were dosed 4 times every day, and were dosed by gavage for 4 weeks.

[2] = Pharmacokinetic study in SD rats: plasma GlcNBu after oral gavage of test compound; assay type: in vivo, Sprague-Dawley (SD) rats; set-up: key: (—): not detected; details: Table 5: plasma GlcNBu after oral administration of the indicated compound, 0.93 mmol/kg
Experimental: A test compound is dissolved in water at a concentration determined by the desired dose and dosing volume for the specific animal to which the compound is to be administered. A calculated volume of dosing solution is administered to the animal (PO, SQ, IP, or IV). A blood sample is collected following administration of the test compound at specific time points (such as 0 minutes (min), 5 min, 10 min, 15 min, 30 min, 1 hour (h), 1.5 h, 2 h, 3 h, 4, 6 h, etc.). The blood sample is converted to a plasma sample using standard techniques. The plasma samples are analyzed to determine the concentration of the test compound and, in some cases, GlcNBu.
According to the above general procedure, SD rats were grouped randomly into groups of six (n=6). The test compound, GlcNBu or a compound provided herein, was administered to the animals by oral gavage at a dose of 0.93 mmol/kg. For illustration purposes, GlcNBu was given at an oral dose of 232 mg/kg (0.93 mmol/kg), and compound 16 was administered at an equal molar dose (0.93 mmol/kg, i.e., 362 mg/kg). At pre-set time points, blood was taken through orbital venous plexus extraction, and the samples were analyzed using LC/MS-MS to determine the GlcNBu concentration in the plasma.
In the figure, Curves labeled with -●- and -▴- represent plasma GlcNBu concentration following oral administration of GlcNBu (232 mg/kg, or 0.93 mmol/kg) and compound 16 ([…], or 0.93 mmol/kg), respectively. […] FIG. 2A and FIG. 2B show examples of other compounds of the invention, presented in plasma GlcNBu concentration versus time curves; a summary of pharmacokinetic parameters for these compounds is given in Table 4 and Table 5.

[3] = rats; data from i.v., i.p., and p.o. studies; cited from earlier work
[4] = tested on: destructive arthritis rat model; details: cited from earlier work
OVX rat = details: GlcNBu feeding in the OVX rat; cited from earlier work
[5] = rats; cited from earlier work
[6] = humans, cited from earlier work
[7] = G2, histopathology after 4 weeks of dosing

For `CCCC(=O)N[C@H]1C(O)O[C@H](COC(=O)CCC)[C@@H](OC(=O)CCC)[C@@H]1O` (stereo partly drawn) [Compound 16, 2-N-4,6-O-tributyryl-D-glucosamine], the “Weight bearing, mean” value (MIA-induced OA rat model; MIA rats, Group 2, 234 mg/kg, Day 3) was 32.07%, the “Weight bearing, mean” value (MIA-induced OA rat model; MIA rats, Group 2, 234 mg/kg, Day 5) was 35.76** % and the “Weight bearing, mean” value (MIA-induced OA rat model; MIA rats, Group 2, 234 mg/kg, Day 7) was 37.72%. The “Weight bearing, mean” value (MIA-induced OA rat model; MIA rats, Group 2, 234 mg/kg, Day 14) was 40.86%, the “Weight bearing, mean” value (MIA-induced OA rat model; MIA rats, Group 2, 234 mg/kg, Day 21) was 44.12% and the “Weight bearing, mean” value (MIA-induced OA rat model; MIA rats, Group 2, 234 mg/kg, Day 28) was 45.90%. For the same compound, the “Weight bearing, mean” value (MIA-induced OA rat model; MIA rats, Group 2, 234 mg/kg, Pre-Injection (Day 0) baseline) was 50.49%, the “Weight bearing, mean” value (MIA-induced OA rat model; MIA rats, Group 3, 468 mg/kg, Day 3) was 34.56% and the “Weight bearing, mean” value (MIA-induced OA rat model; MIA rats, Group 3, 468 mg/kg, Day 5) was 37.40** %. The “Weight bearing, mean” value (MIA-induced OA rat model; MIA rats, Group 3, 468 mg/kg, Day 7) was 39.23%, the “Weight bearing, mean” value (MIA-induced OA rat model; MIA rats, Group 3, 468 mg/kg, Day 14) was 41.68* % and the “Weight bearing, mean” value (MIA-induced OA rat model; MIA rats, Group 3, 468 mg/kg, Day 21) was 44.25%. For the same compound, the “Weight bearing, mean” value (MIA-induced OA rat model; MIA rats, Group 3, 468 mg/kg, Day 28) was 44.98%, the “Weight bearing, mean” value (MIA-induced OA rat model; MIA rats, Group 3, 468 mg/kg, Pre-Injection (Day 0) baseline) was 50.25% and the “weight bearing on the back-right leg versus vehicle” value (MIA-induced OA rat model; MIA rats, day 5, all compound-treated groups (234 and 468 mg/kg)) was “significant increases”. For the same compound, the “weight bearing versus vehicle” value (MIA-induced OA rat model; MIA rats, high dose (G3, 468 mg/kg), day 14) was “significant increases”, the “osteophytes versus vehicle group” value (MIA-induced OA rat model; MIA rats, high dose group (468 mg/kg), histology) was “significantly decreased” and the “all other mean values for each histological parameter” value (MIA-induced OA rat model; MIA rats, high dose treated group (468 mg/kg)) was “clear trend of lowering”. For the same compound, the articular cartilage degeneration (MIA-induced OA rat model; MIA-induced OA rat model) was “slowed”, the “degeneration changes of chondrocyte clustering, G2 compared with G1” value [1] was “significantly lower; also recorded: significantly less” and the “values in all histology parameters, G2 versus G1” value [1] was “lower”. The “weight bearing on the right paw, G2 compared with G1” value ([1]; Day 3 and Days 14-28) was “significantly increased; also recorded: significantly more”, the “Weight bearing (right paw, %), mean” value ([1]; Day 3) was 36.68* % and the “Weight bearing (right paw, %), mean” value ([1]; Day 5) was 39.76%. For the same compound, the “Weight bearing (right paw, %), mean” value ([1]; Day 7) was 40.68%, the “Weight bearing (right paw, %), mean” value ([1]; Day 14) was 42.71* % and the “Weight bearing (right paw, %), mean” value ([1]; Day 21) was 43.73** %. The “Weight bearing (right paw, %), mean” value ([1]; Day 28) was 44.06** %, the “Weight bearing (right paw, %), mean” value ([1]; Pre-injection baseline) was 49.55% and the “Chondrocyte clustering (0-4), mean” value [1, 7] was 1.17*. For the same compound, the “Degenerative changes in cartilage (0-4), mean” value [1, 7] was 1.17, the “Inflammatory response in subchondral bone region (0-4), mean” value [1, 7] was 0.00 and the “Nature of predominant tissue (0-4), mean” value [1, 7] was 1.00. For the same compound, the “Neo-vascularization (0-4), mean” value [1, 7] was 0.00, the “Osteophytes (0-4), mean” value [1, 7] was 1.17 and the “Structural integrity (0-4), mean” value [1, 7] was 1.17. For the same compound, the “Surface regularity (0-4), mean” value [1, 7] was 1.67 and the “Total scoring, mean” value [1, 7] was 7.33.
With `CCCC(=O)N[C@@H]1C(OC(=O)CCC)O[C@H](COC(=O)CCC)[C@@H](OC(=O)CCC)[C@@H]1O` (stereo partly drawn) [Compound 74, 2-N-1,4,6-tri-O-tetrabutyryl-D-glucosamine] the AUC0-t [2] was 662 ng·h/mL, the “AUC0-∞” value [2] was 889 ng·h/mL and the CLz/F [2] was 367 mL/min/kg. For the same compound, the Cmax [2] was 426 ng/mL, the Tmax [2] was 0 h and the t1/2z [2] was 1 h.
In the case of `CCCC(=O)N[C@H]1C(OCc2ccccc2)O[C@H](CO)[C@@H](O)[C@@H]1O` (stereo partly drawn) [Compound 75, 1-O-benzyl-2-N-butyryl-D-glucosamine], the AUC0-t [2] is reported as “(—)”, the “AUC0-∞” value [2] is reported as “(—)” and the CLz/F [2] is reported as “(—)”. For the same compound, the Cmax [2] was “(—)”, the Tmax [2] was “(—)” and the Vz/F [2] was “(—)”. For the same compound, the t1/2z [2] was “(—)”.
For `CCCC(=O)N[C@H]1C(OCc2ccccc2)O[C@H](CO)[C@@H](O)[C@@H]1OCc1ccccc1` (stereo partly drawn) [Compound 76, 2-N-butyryl-1,3-di-O-benzyl-D-glucosamine], the AUC0-t [2] was “(—)”, the “AUC0-∞” value [2] was “(—)” and the CLz/F [2] was “(—)”. For the same compound, the Cmax [2] was “(—)”, the Tmax [2] was “(—)” and the Vz/F [2] was “(—)”. For the same compound, the t1/2z [2] was “(—)”.
With `CCCC(=O)N[C@H]1C(O)O[C@H](COC(=O)CCC(=O)O)[C@@H](OC(=O)CCC(=O)O)[C@@H]1O` (stereo partly drawn) [Compound 79, 2-N-butyryl-4,6-di-O-(4-hydroxy-4-oxo-butyryl)-D-glucosamine] the AUC0-t [2] was “(—)”, the “AUC0-∞” value [2] was “(—)” and the CLz/F [2] was “(—)”. For the same compound, the Cmax [2] was “(—)”, the Tmax [2] was “(—)” and the Vz/F [2] was “(—)”. The t1/2z [2] was “(—)”.
With `CCCC(=O)N[C@H]1C(O)O[C@H](CO)[C@@H](O[C@@H]2O[C@H](CO)[C@@H](O)[C@H](O)[C@H]2O)[C@@H]1O` (stereo partly drawn) [Compound 89, 2-N-butyryl-4-O-(D-glucopyranosyl)-D-glucosamine] the AUC0-t [2] was 1757 ng·h/mL, the “AUC0-∞” value [2] was 1942 ng·h/mL and the CLz/F [2] was 167 mL/min/kg. The Cmax [2] was 1110 ng/mL, the Tmax [2] was 2 h and the t1/2z [2] was 1 h.
With `CCCC(=O)N[C@H]1C(O)O[C@H](COC(=O)NCCCC(=O)O)[C@@H](O)[C@@H]1O` (stereo partly drawn) [Compound 94, 2-N-butyryl-6-O-((3-carboxy-1-propyl)aminocarbonyl)-D-glucosamine] the AUC0-t [2] was “(—)”, the “AUC0-∞” value [2] was “(—)” and the CLz/F [2] was “(—)”. The Cmax [2] was “(—)”, the Tmax [2] was “(—)” and the Vz/F [2] was “(—)”. The t1/2z [2] was “(—)”.
In the case of `CCCC(=O)N[C@H]1C(O)O[C@H](CO)[C@@H](O)[C@@H]1O` (stereo partly drawn) [GlcNBu, N-butyryl glucosamine], the half-life [3] is given as “about 20 min”, the subchondral bone structure [4] is given as “preserved strikingly” and the “bone mineral and some biomechanical properties” value (OVX rat) is given as “preserves”.
For `N[C@H]1C(O)O[C@H](CO)[C@@H](O)[C@@H]1O` (stereo partly drawn) [Glucosamine, glucosamine], the “oral bioavailability (F)” value [5] is listed as 0.19-0.21 and the serum levels ([6]; very large doses, after oral or IV administration) is listed as “cannot be detected”.
For `CC(=O)N[C@H]1C(O)O[C@H](CO)[C@@H](O)[C@@H]1O` (stereo partly drawn) [N-acetylglucosamine], the “half-life compared with glucosamine” value ([6]; polyvalent or monovalent form) is listed as “longer”.
